# Data published in article PMC8879825, “Identification of α-Glucosidase Inhibitors from Scutellaria edelbergii: ESI-LC-MS and Computational Approach” (Molecules, 2022).
# Target: yeast α-glucosidase enzymes
# Assay: α-Glucosidase inhibitory assay
# Assay type: biochemical
# Conditions: substrate p-nitrophenyl-α-D-glucopyranoside, pH 6.8, 37 °C
# Description: The α-glucosidase assay was performed using 50 mM phosphate buffer (pH 6.8). All samples were dissolved in DMSO. An enzyme (2 U/2 mL) 20 µL/well and test samples (0.5 mg/mL) 20 µL/well and 135 µL/well phosphate buffer were loaded into a 96-well plate, followed by 15 min of incubation at 37 °C. Substrate p-nitrophenyl-α-D-glucopyranoside (0.7 mM) 25 µL/well was added to the 96-well plate after 15 min of incubation, and readings were measured at 400 nm for 30 min. DMSO 7% was used as a positive control. Percent inhibition was calculated by using the following formula [30]. % Inhibition=100×O.D of tested samples/O.D. of control−100
# OD is the optical density of the tested samples.
smiles,measurement,value
C[C@H]1O[C@H](O[C@H]2[C@H](O)[C@@H](O)[C@@H](O[C@H]3[C@H](O)[C@@H](O)C(O)O[C@@H]3CO)O[C@@H]2CO)[C@H](O)[C@@H](O)[C@@H]1N[C@H]1C=C(CO)[C@@H](O)[C@H](O)[C@H]1O (stereo partly shown) [acarbose],IC50 (α-glucosidase inhibition),377.26 ± 1.20 µg/mL
